Measurements reported in patent publication US20160154122A1, “Scintillating Organic Materials and Methods For Detecting Neutron and Gamma Radiation” (Nanoptics, Incorporated, priority 2011, published 2016).
Where two headings read alike, the source gives them in different places.

How the values were obtained:
[1] = Solubility of base dye in polystyrene; type: physicochemical; conditions: base dye measured to be soluble in polystyrene
[2] = result in words; cited from earlier work
[3] = result in words; cited from earlier work; remark: listed apart in the source
[4] = From the text: Salts of lithium can have a variety of properties, including one or more of the following: many salts of lithium are very chemically reactive; others are extremely insoluble; some are not produced in high volume and are, therefore, expensive to use at high concentration; and others have elements with moderate to high atomic numbers, causing quenching of the scintillation light.

Compound: Cc1ccc(C)cc1 [p-Xylene]
- Solubility [1]: >1000 mM

Compound: C=CN1CCCC1=O [N-Vinyl-2-Pyrrolidone]
- Hygroscopic [2]: Yes

Compound: Cc1cccc2ccccc12 [1-Methyl Naphthalene]
- Solubility [1]: >1000 mM

Compound: CN1CCN(C)C1=O [DMI, 1,3 Dimethyl 2-Imidazolidone]
- Miscibility with water [3]: miscible

Compound: [Cl-].[Li+] [Lithium Chloride]
- Solubility of Compound (wt %) DIM [4]: >15.0 wt %
- Solubility of Compound (wt %) DMSO [4]: 10.20 wt %
- Solubility of Compound (wt %) H2O [4]: 83.50 wt %

Compound: [Li+].[O-][Cl+3]([O-])([O-])[O-] [Lithium Perchlorate]
- Percentage wt of Lithium in Solution DMSO ([4]; achievable lithium ions in DMSO): 2.05 % wt/wt
- Percentage wt of Lithium in Solution H2O ([4]; achievable lithium ions in H2O): 3.70 % wt/wt
- Solubility of Compound (wt %) DMSO ([4]; maximum solubility in DMSO): 31.50 wt %
- Solubility of Compound (wt %) H2O ([4]; maximum solubility in H2O): 56.10 wt %

Compound: O=C([O-])c1ccccc1.[Li+] [Lithium Benzoate]
- Percentage wt of Lithium in Solution H2O [4]: 2.40 % wt/wt

Compound: CN1CCCC1=O [NMP, Methylpyrrolidone]
- Miscibility with water [3]: miscible

Compound: Cc1ccc(C)c(C)c1 [pseudocumene]
- Solubility [1]: >1000 mM

Compound: Cc1ccc2ccccc2c1 [2-Methyl Naphthalene]
- Solubility [1]: >1000 mM

Compound: c1ccc2ccccc2c1 [Naphthalene]
- Solubility [1]: >1000 mM

Compound: c1ccc(-c2cnc(-c3ccccc3)o2)cc1 [2,5 Diphenyloxazole]
- Solubility [1]: >1500 mM
